The target in this experiment is T1, CCR-5 receptor (Homo sapiens, UniProt P51681).
T1 construct: membranes prepared from CCR-5/L 1.2 cells; expressed in transfected cells; host or cells: L1.2 cells (CCR-5/L 1.2), membrane preparation
In words: 125I-gp120/sCD4/CCR-5 binding assay (CCR-5 receptor binding assay). To be noted: for IC50: block of 125I-gp120 (HIV-1 JR-FL)/sCD4 binding to membranes from CCR-5/L 1.2 cells; for inhibition at 10 µM / % Inhib. @ 10 μM: 10 μM compound, 125I-gp120/sCD4 binding to membranes from CCR-5/L 1.2 cells; for inhibition at 10 µM: read-out: % Inhib. @ 10 μM. As for the experimental part: The ^125I-gp120/sCD4/CCR-5 binding assay is carried out similarly as described in Wu et al., Nature, 1996;384:179-183. Briefly, the envelope gp120 protein derived from HIV-1 JR-FL (Trkola et al., Nature, 1996;384:184-186), a M-tropic strain, is iodinated using solid phase lactoperoxidase to a specific activity of 20 μCi/μg. For each binding reaction (in a final volume of 100 μL binding buffer [50 mM HEPES, pH 7.5, 1 mM CaCl2, 5 mM MgCl2, and 0.5% BSA]), 25 μL (2.5 μg) of membranes prepared from CCR-5/L 1.2 cells are mixed with 25 μL (3 nM) sCD4, followed by 25 μL (0.1 nM) radiolabeled gp120 in the presence or absence of 25 μL compound dissolved in DMSO (final concentration of DMSO 0.5%). The reactions are incubated at room temperature for 45 to 60 minutes and stopped by transferring the mixture to GFB filter plates, which are then washed 3 to 4 times with binding buffer containing 0.5 M NaCl. The plates are dried and MicroScint scintillation fluid is added before counting.

Molecules are shown by their SMILES.

The record followed here is patent publication US6506751B1, “Thiazolidinone compounds useful as chemokine inhibitors” (Millennium Pharmaceuticals, Inc., priority 1999, dated 2003).

The IC50 is the concentration needed to halve the response being measured. A low value points to inhibition by little substance.

T1 sequence (P51681 whole entry): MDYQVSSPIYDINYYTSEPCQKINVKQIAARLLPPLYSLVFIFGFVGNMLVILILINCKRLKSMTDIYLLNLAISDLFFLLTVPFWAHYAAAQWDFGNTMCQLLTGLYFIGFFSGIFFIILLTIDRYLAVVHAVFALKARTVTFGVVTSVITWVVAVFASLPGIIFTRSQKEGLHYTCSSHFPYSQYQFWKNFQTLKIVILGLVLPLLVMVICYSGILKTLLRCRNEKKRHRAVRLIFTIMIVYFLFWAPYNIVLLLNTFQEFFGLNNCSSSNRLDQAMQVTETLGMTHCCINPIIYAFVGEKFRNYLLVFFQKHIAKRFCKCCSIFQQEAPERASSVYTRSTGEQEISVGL

`O=C1/C(=C\c2ccccc2)SC(c2cccc(Cl)c2)N1CCCN1CCCCC1` (centres unmarked) [Compound 3, 5-Benzylidene-2-(3-chlorophenyl)-3-(3-piperidin-1-yl-propyl)-thiazolidin-4-one] returned a half-inhibitory concentration (IC50) of 0.28 µM.
Still for that read-out and setting: then `O=C1/C(=C\c2cccc(F)c2)SC(c2cccc(Cl)c2)N1CCCN1CCCCC1` (centres unmarked) [Compound 4, 2-(3-Chlorophenyl)-5-(3-fluorobenzylidene)-3-(3-piperidin-1-yl-propyl)-thiazolidin-4-one], with 0.2 µM; and `O=C1/C(=C\c2cccc(F)c2)SC(c2ccccc2)N1CCCN1CCC(N2CCCCC2)CC1` (centres unmarked) [Compound 5, 3-(3-[1,4′]Bipiperidinyl-1′-yl-propyl)-5-(3-fluorobenzylidene)-2-phenyl-thiazolidin-4-one], with 0.71 µM.
For `O=C1/C(=C\c2cccc(F)c2)SC(c2ccccc2)N1CCCN1CCOCC1` (centres unmarked) [Compound 7, 5-(3-Fluorobenzylidene)-3-(3-morpholin-4-yl-propyl)-2-phenyl-thiazolidin-4-one], the IC50 was found to be 0.14 µM.
Still for that read-out and setting: then `O=C1/C(=C\c2ccncc2)SC(c2cccc(Cl)c2)N1CCCN1CCCCC1` (centres unmarked) [Compound 8, 2-(3-Chlorophenyl)-3-(3-piperidin-1-yl-propyl)-5-(pyridin-4-yl-methylene)-thiazolidin-4-one], with 0.78 µM; and `O=C1/C(=C\c2ccc[nH]2)SC(c2cccc(Cl)c2)N1CCCN1CCCCC1` (centres unmarked) [Compound 9, 2-(3-Chlorophenyl)-3-(3-piperidin-1-yl-propyl)-5-(1 H-pyrrol-2-yl-methylene)-thiazolidin-4-one], with 0.39 µM; and `O=C1/C(=C\c2ccsc2)SC(c2cccc(Cl)c2)N1CCCN1CCCCC1` (centres unmarked) [Compound 10, 2-(3-Chlorophenyl)-3-(3-piperidin-1-yl-propyl)-5-(thiophen-3-yl-methylene)-thiazolidin-4-one], with 1.04 µM.
In turn, `Cn1cccc1C=C1SC(c2cccc(Cl)c2)N(CCCN2CCCCC2)C1=O` (centres unmarked) [Compound 11, 2-(3-Chlorophenyl)-5-(1-methyl-1H-pyrrol-2-ylmethylene)-3-(3-piperidin-1-yl-propyl)-thiazolidin-4-one] yielded an IC50 of 0.98 µM.
The same measure, in the same setting: then `CCC(/C=C1/SC(c2cccc(Cl)c2)N(CCCN2CCCCC2)C1=O)CC` (centres unmarked) [Compound 12, 2-(3-Chlorophenyl)-5-(2-ethylbutylidene)-3-(3-piperidin-1-yl-propyl)-thiazolidin-4-one], with 6.64 µM; and `CN(C)CC(C)(C)/C=C1/SC(c2cccc(Cl)c2)N(CCCN2CCCCC2)C1=O` (centres unmarked) [Compound 13, 2-(3-Chlorophenyl)-5-(3-dimethylamino-2,2-dimethylpropylidene)-3-(3-piperidin-1-yl-propyl)-thiazolidin-4-one], with 2.82 µM.
On the same count and under the same terms, the value for `O=C1/C(=C\c2cnc3ccccc3c2)SC(c2cccc(Cl)c2)N1CCCN1CCCCC1` (centres unmarked) [Compound 18, 2-(3-Chlorophenyl)-3-(3-piperidin-1-yl-propyl)-5-(quinolin-3-ylmethylene)-thiazolidin-4-one] was 4.12 µM.
With `O=C1C(=Cc2ccccc2)SC(c2ccccc2)N1CCCN1CCCCCC1` (centres unmarked) [Compound 21, 3-(3-Azepan-1-ylpropyl)-5-benzylidene-2-phenyl-thiazolidin-4-one], the IC50 was 1.4 µM. Compared with the last molecule, the IC50 is about 2.9-fold lower.
On the same count and under the same terms, then `O=C1/C(=C\c2cccc(F)c2)SC(c2cccc(Cl)c2)N1CCCN1CCC(N2CCCCC2)CC1` (centres unmarked) [Compound 22, 3-(3-[1,4′]Bipiperidinyl-1′-yl-propyl)-2-(3-chlorophenyl)-5-(3-fluorobenzylidene)-thiazolidin-4-one], with 0.4 µM; and `O=C1C(=Cc2ccccc2)[S+]([O-])C(c2cccc(Cl)c2)N1CCCN1CCCCC1` (centres unmarked) [Compound 24, 5-Benzylidene-2-(3-chlorophenyl)-1-oxo-3-(3-piperidin-1-yl-propyl)-thiazolidin-4-one], with 3.1 µM.
In the case of `O=C1C(=Cc2cccc(F)c2)SC(c2cccc(C(F)(F)F)c2)N1CCCN1CCCCC1` (centres unmarked) [Compound 25, 5-(3-Fluoro-benzylidene)-3-(3-piperidin-1-yl-propyl)-2-(3-trifluoromethyl-phenyl)-thiazolidin-4-one], the inhibition at 10 µM came out at 50.7%.
Still for that read-out and setting: then `O=C1C(=Cc2cccc(F)c2)SC(c2cccc(F)c2)N1CCCN1CCN(c2ccccn2)CC1` (centres unmarked) [Compound 26, 5-(3-Fluoro-benzylidene)-2-(3-fluoro-phenyl)-3-[3-(4-pyridin-2-yl-piperazin-1-yl)-propyl]-thiazolidin-4-one], with 75.3%.
Take `O=C1C(=Cc2cccc(F)c2)SC(c2cccc(F)c2)N1CCCN1CCN(C2CCCCC2)CC1` (centres unmarked) [Compound 27, 3-[3-(4-Cyclohexyl-piperazin-1-yl)-propyl]-5-(3-fluoro-benzylidene)-2-(3-fluoro-phenyl)-thiazolidin-4-one]: the inhibition at 10 µM was determined as 57.6%.
For `O=C1C(=Cc2cccc(F)c2)SC(c2cccc(Cl)c2)N1CCCN1CCN(c2ccccn2)CC1` (centres unmarked) [Compound 28, 2-(3-Chloro-phenyl)-5-(3-fluoro-benzylidene)-3-[3-(4-pyridin-2-yl-piperazin-1-yl)-propy1]-thiazolidin-4-one], the “% Inhib. @ 10 μM” value worked out at 78.8%.
Regarding `O=C1C(=Cc2cccc(F)c2)SC(c2cccc(Cl)c2)N1CCCN1CCN(c2ncccn2)CC1` (centres unmarked) [Compound 29, 2-(3-Chloro-phenyl)-5-(3-fluoro-benzylidene)-3-[3-(4-pyrimidin-2-yl-piperazin-1-yl)-propyl]-thiazolidin-4-one], the inhibition at 10 µM is 86.8%.
Regarding `O=C1C(=Cc2cccc(C(F)(F)F)c2)SC(c2cccc(Cl)c2)N1CCCN1CCN(c2ccccn2)CC1` (centres unmarked) [Compound 30, 2-(3-Chloro-phenyl)-3-[3-(4-pyridin-2-yl-piperazin-1-yl)-propyl]-5-(3-trifluoromethyl-benzylidene)-thiazolidin-4-one], the inhibition at 10 µM was found to be 61.7%.
The same measure, in the same setting: then `O=C1C(=Cc2cccc(C(F)(F)F)c2)SC(c2cccc(Cl)c2)N1CCCN1CCCCC1` (centres unmarked) [Compound 31, 2-(3-Chloro-phenyl)-3-(3-piperidin-1-yl-propyl)-5-(3-trifluoromethyl-benzylidene)-thiazolidin-4-one], with 54.4%.
`O=C1C(=Cc2cccc(C(F)(F)F)c2)SC(c2cccc(Cl)c2)N1CCCN1CCN(c2ncccn2)CC1` (centres unmarked) [Compound 32]: the “% Inhib. @ 10 μM” value is recorded as 81.8%.
For `O=C1C(=Cc2ccccc2)SC(c2cccc(C(F)(F)F)c2)N1CCCN1CCN(c2ccccn2)CC1` (centres unmarked) [Compound 33, 5-Benzylidene-3-[3-(4-pyridin-2-yl-piperazin-1-yl)-propyl]-2-(3-trifluoromethyl-phenyl)-thiazolidin-4-one], the inhibition at 10 µM stood at 62%.
The same measure, in the same setting: then `O=C1C(=Cc2ccccc2)SC(c2cccc(C(F)(F)F)c2)N1CCCN1CCN(c2ncccn2)CC1` (centres unmarked) [Compound 34, 5-Benzylidene-3-[3-(4-pyrimidin-2-yl-piperazin-1-yl)-propyl]-2-(3-trifluoromethyl-phenyl)-thiazolidin-4-one], with 79.2%; and `O=C1C(=Cc2ccccc2)SC(c2cccc(F)c2)N1CCCN1CCN(c2ccccn2)CC1` (centres unmarked) [Compound 35, 5-Benzylidene-2-(3-fluoro-phenyl)-3-[3-(4-pyridin-2-yl-piperazin-1-yl)-propyl]-thiazolidin-4-one], with 76.2%; and `O=C1C(=Cc2ccccc2)SC(c2cccc(F)c2)N1CCCN1CCCCC1` (centres unmarked) [Compound 36, 5-Benzylidene-2-(3-fluoro-phenyl)-3-(3-piperidin-1-yl-propyl)-thiazolidin-4-one], with 63.3%.
